Assay results as given in patent US5061720A, “Substituted-4-thiazolidinone derivatives” (A. H. Robins Company, Inc., priority 1989, dated 1991).

These compounds were tested against T1, cyclooxygenase (Ovis aries, UniProt P05979) (assay: Cyclooxygenase Assay (polarigraphic oxygen consumption, lipid-depleted sheep seminal vesicle microsomes)). Settings: 30° C., 2 min incubation, ammonium arachidonate substrate.
T1 construct: Lipid-depleted Sheep Seminal Vesicle Microsome Suspension; from tissue; host or cells: sheep seminal vesicle microsomes (lipid-depleted powder, detergent solubilized)
T1 sequence (P05979 25-600): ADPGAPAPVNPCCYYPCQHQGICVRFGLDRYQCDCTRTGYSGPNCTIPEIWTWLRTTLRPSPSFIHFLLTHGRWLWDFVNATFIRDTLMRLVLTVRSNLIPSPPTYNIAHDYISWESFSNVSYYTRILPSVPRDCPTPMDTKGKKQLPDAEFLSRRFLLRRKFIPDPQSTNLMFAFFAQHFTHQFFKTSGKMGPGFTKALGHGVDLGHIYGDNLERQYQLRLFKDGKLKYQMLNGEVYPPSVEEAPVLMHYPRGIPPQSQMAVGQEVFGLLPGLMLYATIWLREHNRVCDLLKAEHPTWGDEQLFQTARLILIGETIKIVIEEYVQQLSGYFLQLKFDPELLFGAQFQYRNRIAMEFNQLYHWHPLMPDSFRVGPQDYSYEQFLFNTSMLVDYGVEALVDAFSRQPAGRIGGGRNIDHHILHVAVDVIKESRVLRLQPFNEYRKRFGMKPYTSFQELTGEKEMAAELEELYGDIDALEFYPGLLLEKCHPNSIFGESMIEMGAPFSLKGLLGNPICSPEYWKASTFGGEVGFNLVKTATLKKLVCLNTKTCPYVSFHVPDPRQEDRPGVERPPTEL
Assay type: biochemical
Description: Cyclooxygenase activity was determined polarigraphically with detergent solubilized, lipid-depleted sheep seminal vesical microsomes. Addition of test articles that inhibit cyclooxygenase, including reference standards, cause a decrease in the rate of oxygen consumption in the reactions. Cyclooxygenase activity is determined using the following procedures:
I. Preparation of Test Materials
1. Lipid-Depleted Sheep Seminal Vesicle Microsomal Powder. This preparation follows the procedure of G. Graff et al. J. Biol. Chem. 253, 7662 (1978).
2. Ammonium Arachidonate Solution. A 250 μL aliquot of 20.0 mM arachidonic acid in absolute ethanol and a 50-μL aliquot of concentrated ammonium hydroxide is placed into a test tube. The solvent and excess ammonium hydroxide is evaporated under a stream of nitrogen at room temperature. The ammonium arachidonate residue is dissolved in 500 μL of 100 mM 2-amino-2-hydroxymethyl-1,3-propanediol hydrochloride (Tris HCl) buffer (pH 8.0) by using a vortex mixer. The final concentration of ammonium arachidonate (working solution) is 10.0 mM.
3. Enzyme Buffer 100 mM Tris HCl (pH 8.0) containing 2.0 mM phenol, 5.0 mM ethylenediaminetetraacetic acid (EDTA), 5.0 mM diethyldithiocarbamic acid and 1.0% Tween 20.
4. Reaction Buffer 100 mM Tris HCl (pH 8.0) containing 2.0 μM hematin and 1.0 mM phenol (prepared daily).
5. Detergent Solubilized Lipid-depleted Sheep Seminal Vesicle Microsome Suspension. Ten mg (solid) of lipid-depleted microsomal powder from sheep seminal vesicles is suspended in 1.0 mL of enzyme buffer and kept at 4° C. until used.
6. Solutions of Test (Formula I compound) or Reference Articles. Test and reference articles are dissolved in the reaction buffer prepared in 4) or a solvent that will not interfere with cyclooxygenase activity, e.g., dimethylsulfoxide, ethanol or acetone.
II. Cyclooxygenase Inhibition Assay
Three mL of the reaction buffer and 20 μL of the microsomal enzyme suspension are placed in a Yellow Springs Instrument (YSI) oxygen chamber where the temperature is maintained at 30° C. by means of a temperature controlled circulating water bath. Aliquots of the solutions containing ≤[…] of Formula I compound (test article) or reference article [see 6) above] are added to the YSI chamber and incubated for 2 minutes. The reaction is initiated by addition of 30 μL of the 10 mM ammonium arachidonate solution and cyclooxygenase activity determined polarigraphically using an oxygen electrode by measuring the rate of oxygen consumption [Cook et al., Anal. Biochem 96 341-51 (1979) and Cook and Lands, Can. J. Biochem. 53, 1220-1231 (1975)].
Test, reference, and control articles were evaluated in triplicate. Cyclooxygenase activity was determined from the slope (mv/unit time) of the recorder tracing with 1 mV being proportional to a 2.34 μM change in oxygen concentration.
The IC50 (concentration of test or reference article that inhibits the reaction by 50%) was calculated from cumulative plots relating the extent of inhibition of cyclooxygenase activity in control group assays to increasing concentrations of test article. Where no inhibition exists, the IC50 is expressed as greater than the highest concentration of the drug tested.
An IC50 of 12000 nM was found for CCCC[C@@H]1S[C@@H](c2cccc(Oc3ccccc3)c2)NC1=O (relative stereo) [Example 83, 5-Butyl-2-(3-phenoxyphenyl)-4-thiazolidinone] in this work. An IC50 of 9300 nM was found for CCCCC1SC(c2cccc(Oc3ccccc3)c2)N(CCCCC(=O)O)C1=O (stereo not shown) [Example 45, 5-Butyl-4-oxo-2-(3-phenoxyphenyl)-3-thiazolidinepentanoic acid] in this work. An IC50 of 90 nM was found for CCCCC1SC(c2cccc(Oc3ccccc3)c2)N(CCCCc2ccccc2)C1=O (stereo not shown) [Example 1, 5-Butyl-2-(3-phenoxyphenyl)-3-(4-phenylbutyl)-4-thiazolidinone] in this work. An IC50 of 260 nM was found for CCCC[C@@H]1S[C@H](c2cccc(Oc3ccccc3)c2)N(CCCCCC(=O)OCC)C1=O (relative stereo) [Example 51] in this work. An IC50 of 3400 nM was found for CCCCC1SC(c2cccc(Oc3ccccc3)c2)N(CCc2ccccc2)C1=O (stereo not shown) [Example 17, 5-Butyl-2-(3-phenoxyphenyl)-3-(2-phenylethyl)-4-thiazolidinone] in this work. An IC50 of 1400 nM was found for CC1SC(c2cccc(Oc3ccccc3)c2)N(CCCCc2ccccc2)C1=O (stereo not shown) [Example 7, 5-Methyl-2-(3-phenoxyphenyl)-3-(4-phenylbutyl)-4-thiazolidinone] in this work. An IC50 of 10 nM was found for CCCCC1SC(c2cccc(C(=O)c3ccccc3)c2)N(CCCCc2ccccc2)C1=O (stereo not shown) [Example 8, 2-(3-Benzoylphenyl)-5-butyl-3-(4-phenylbutyl)-4-thiazolidinone] in this work.
